Data set [1] can be described thus: Selectivity ratio of IC50 for cytotoxicity against HUVEC cells to IC50 for cytotoxicity against human HL-60 cells. It is filed as toxicity, cell-based. Conditions: HUVEC cells versus HL-60 cells, read-out: Ratio IC50.
The nature of data set [2]: Selectivity ratio of IC50 for cytotoxicity against human MCF7 cells to IC50 for cytotoxicity against human HL-60 cells. The settings on record: MCF7 cells versus HL-60 cells, read-out: Ratio IC50. In kind it is toxicity, cell-based.

Take `COc1cccc(Cn2c(C)c(C)[n+](Cc3ccccc3)c2C)c1`: the selectivity ratio in data set [1] and in data set [2] was > 100 each time.

Values taken from ChEMBL document CHEMBL5032536, “Synthesis and Cytotoxic Activity of Lepidilines A-D: Comparison with Some 4,5-Diphenyl Analogues and Related Imidazole-2-thiones” (J Nat Prod, 2021).
